# Assay results as given in PMC7890253, “Signal Transduction Mechanisms for Glucagon-Induced Somatolactin Secretion and Gene Expression in Nile Tilapia (Oreochromis niloticus) Pituitary Cells” (Frontiers in Endocrinology, 2021).
# Experiments:
# tilapia NIL cells [1] = assay: SL release in primary NIL cell culture (ELISA); assay type: cell-based, Nile tilapia (Oreochromis niloticus); conditions: for SL release, dose dependence: mean ± SEM (N = 3)
# Method: (§1) To examine the direct effects of GCG on SL release and gene expression in the pituitary, tilapia NIL cells were prepared by the controlled trypsin/DNase II digestion method as described previously ([30]). After that, NIL cells were seeded in poly-D-lysine precoated 24-well plates at ~1.5 × 10^6 cells/mL/well and incubated with test substances for the duration as indicated. After drug treatment, SL release in conditioned medium was immediately determined by the enzyme-linked immunosorbent assay (ELISA) with a detectable range from 0.5 to 500 ng/mL for SL. The assay was optimized in our laboratory by utilizing a polyclonal antibody against tilapia SL ([31]) and a SL-biotin conjugate (GenScript, Nanjing, China). Meanwhile, the cells were rinsed with cold PBS before being lysed by TRIzol reagent (Life Technologies) to measure SL gene expression. After cDNA synthesis, qPCR assays were performed using the primers specific for tilapia SL (forward primer: 5’ […] 3’ and reverse primer: 5’ […] 3’). The same qPCR conditions were maintained as described above, and gene expression levels were analyzed using the 2^−ΔΔCT method. In these experiments, β-actin was used as an internal control for normalizing genes of interest. It has been reported that β-actin is used to normalize SL gene expression in tilapia ([14]), goldfish ([32]), and red drum ([33]).
# (§2) For qPCR and ELISA assays, NIL cells were prepared from 30–40 individual fish in each experimental run. For cAMP and IP3 measurements, NIL cells were prepared from ~30 individual fish in each experimental run. For Ca^2+ signal measurements, NIL cells were prepared from 10–12 individual fish. For the Western blot analysis, NIL cells were prepared from ~30 individual fish in each experimental run. Three biological replicates were analyzed, and four technical repeats were performed per sample. All results are expressed as the mean ± SEM (N = 3) and analyzed with ANOVA followed by post-hoc Bonferroni’s test for multiple comparisons. A value of P < 0.05 was regarded as statistically significant. All analyses were performed with GraphPad Prism Software, Inc (San Diego, CA).
# tilapia NIL cells [2] = assay: SL gene expression in primary NIL cell culture (qPCR); assay type: cell-based, Nile tilapia (Oreochromis niloticus); conditions: for effect on basal SL gene expression: 10 µM test substance
# Method: as §1, §2
# rat hepatocytes [3] = conditions: ref [57]; cited from earlier work
# rat hepatocytes [4] = conditions: ref Mine et al. ([59]); cited from earlier work
# Source text: Although pituitary GCG-mediated molecular signaling pathways remain largely unknown, GCG action in fish hepatocytes is mediated by the AC/cAMP/PKA pathway ([52], [55]). These findings promote us to investigate similar signaling mechanisms involved in GCGb action in tilapia pituitary cells. […] In contrast, both basal and GCGb-induced SL release and gene expression ...
# tilapia GCGRa = assay: CRE-luciferase reporter assay, HEK293 cells stably expressing tilapia GCGRa; assay type: cell-based, Nile tilapia (Oreochromis niloticus)
# Method: (§3) The open reading frames (ORFs) of tilapia Gcgra and Gcgrb were subcloned in the pcDNA3.1 (+) expression vector (Invitrogen) using high-fidelity Taq DNA polymerase (TOYOBO, Japan) and then HEK293 cell lines with stable expression of pcDNA3.1-GCGRa, and pcDNA3.1-GCGRb, respectively, were established in the presence of 500 µg/mL […] (Invitrogen). The expression of Gcgra and Gcgrb transcripts in these stably transfected cell lines was confirmed by qPCR, and the colonies with the same levels of Gcgra and Gcgrb mRNA expression were selected for subsequent studies. After that, HEK293 cells were co-transfected with the cAMP response element (CRE)-luciferase reporter plasmid, and Renilla luciferase plasmid (pTK-RL) (Promega, Madison, WI), encoding the Renilla luciferase protein, as the internal control using Lipofectamine in Opti-MEM (Invitrogen). […] The luciferase activity of cellular lysates was determined using a Dual-Glo luciferase assay kit (Promega), and the signal was read using a microplate reader (Fluostar OPTIMA, BMGLabtech). The luciferase activities in each treatment group were expressed as relative fold increase compared with the control group.
# (§4) Figure 3 Functional characterization of tilapia GCGRa and GCGRb expressed in HEK293 cells. […] All results are expressed as the mean ± SEM (N = 3).
# tilapia GCGRb = assay: CRE-luciferase reporter assay, HEK293 cells stably expressing tilapia GCGRb; assay type: cell-based, Nile tilapia (Oreochromis niloticus); conditions: HEK293, CRE-luciferase (cAMP), 24 h treatment, 37°C, Luc ratio to Renilla, N = 3
# Method: as §3, §4
# fish glucagon = conditions: ref [18]; cited from earlier work
# Method: Male Nile tilapia (O. niloticus) with a bodyweight range of 45-55 g were purchased from local aquaria and maintained in aerated 300-liter aquaria at 28°C under 12 h dark/12 h light photoperiod. During tissue sampling, the fish were sacrificed by spinosectomy after anesthesia with 0.05% MS222 (Sigma, St Louis, MO) according to the procedures approved by the Animal Ethics Committee of Sichuan University. The tilapia and human GCGs and the des-His1-[Nle9-Ala11-Ala16] GCG antagonist were synthesized by GL Biochem (Shanghai, China).
# GCGRb = conditions: ref [42]; cited from earlier work
# Source text: Identification of multiple types of Gcgrs raises a question of whether a given physiological response is mediated by either a specific receptor or multiple types of receptors. We examined the functional similarity and difference of the two tilapia GCGRs.
# [5] = 5 µM test substance with GCGb 10 nM, 24 h
# [6] = 10 µM test substance with GCGb 10 nM, 24 h
# [7] = 1 µM test substance with GCGb 10 nM, 24 h
# [8] = 50 nM test substance with GCGb 10 nM (duration not given)
# [9] = 5 µM test substance with GCGb 10 nM (duration not given)
compound,measurement,setting,value
CN([C@@H](Cc1ccc(OS(=O)(=O)c2cccc3cnccc23)cc1)C(=O)N1CCN(c2ccccc2)CC1)S(=O)(=O)c1cccc2cnccc12 [KN62],effect on GCGb-stimulated SL release,tilapia NIL cells [1]; [5],abolished
same,effect on GCGb-stimulated SL mRNA expression,tilapia NIL cells [2]; [5],abolished
"GCG: Glucagon, a 29 amino acid peptide hormone derived from proglucagon (cited work, species not stated)",production of IP3,rat hepatocytes [3],induce the production of IP3
same,Ca^2+ release,rat hepatocytes [4],can mediate Ca^2+ release from both intracellular Ca^2+ store and extracellular Ca^2+ influx
COc1ccc2c(c1)CC[C@@H]1[C@@H]2CC[C@]2(C)[C@@H](NCCCCCCN3C(=O)C=CC3=O)CC[C@@H]12 [U73122],effect on GCGb-stimulated SL release,tilapia NIL cells [1]; [6],blocked the GCGb-stimulated SL release and mRNA expression
same,effect on GCGb-stimulated SL mRNA expression,tilapia NIL cells [2]; [6],blocked the GCGb-stimulated SL release and mRNA expression
C=C[C@@]1(C)CC(=O)[C@]2(O)[C@@]3(C)[C@@H](O)CCC(C)(C)[C@@H]3[C@H](O)[C@H](OC(C)=O)[C@@]2(C)O1 [forskolin],"SL release, dose dependence","tilapia NIL cells [1]; 0.1–100 nM, 24 h",dose-dependently stimulated SL release
COc1c(C[C@@H](C)OC(=O)Oc2ccc(O)cc2)c2c3c(C[C@@H](C)OC(=O)c4ccccc4)c(OC)c(=O)c4c(O)cc(OC)c(c5c(OC)cc(O)c(c1=O)c52)c43 [calphostin C],effect on GCGb-stimulated SL release,"tilapia NIL cells [1]; 20 nM test substance with GCGb 10 nM, 24 h",neither compound was able to block GCGb stimulated SL release
"human GCG: human glucagon, synthesized by GL Biochem",potency at tilapia GCGRa relative to tilapia GCGa (fold less potent),tilapia GCGRa; fold less potent than tilapia GCGa,80 fold
same,EC50,"tilapia GCGRa; tilapia GCGRa, HEK293, CRE-luciferase (cAMP), 24 h treatment, 37°C, Luc ratio to Renilla, N = 3",240 nM
same,EC50,tilapia GCGRb,6.37 nM
des-His1-[Nle9-Ala11-Ala16] GCG antagonist,effect on GCGb-stimulated SL release,tilapia NIL cells [1]; [7],stimulatory effect could be blocked
same,block of the action of fish glucagon,fish glucagon,could block the action of fish glucagon
Cl.c1ccc(C2CCCC2NC2=NCCCCCCCCCCC2)cc1 (stereo not shown) [MDL12330A],effect on GCGb-stimulated SL release,tilapia NIL cells [1]; [6],blocked
same,effect on basal SL release,"tilapia NIL cells [1]; 10 µM test substance, 24 h",blocked the basal levels
same,effect on GCGb-stimulated SL mRNA expression,tilapia NIL cells [2]; [6],blocked
same,effect on basal SL gene expression,tilapia NIL cells [2]; 24 h,blocked the basal levels
mouse GCG: mouse glucagon (cited work),activation of zebrafish GCGRb,GCGRb,potently activated
Cc1cc(C)c(S(=O)(=O)Nc2cccc(C(F)(F)F)c2)c(C)c1 [m-3M3FBS],"SL release, dose dependence",tilapia NIL cells [1]; 0.01–10 µM,dose-dependently stimulated SL release
C/C=C(/C)C(=O)O[C@H]1C(C)=C2[C@H]([C@@H]1OC(=O)CCCCCCC)[C@@](C)(OC(C)=O)C[C@H](OC(=O)CCC)[C@@]1(O)[C@H]2OC(=O)[C@@]1(C)O [thapsigargin],effect on GCGb-stimulated SL release,tilapia NIL cells [1]; [8],effective in blocking the stimulatory effect of GCGb on SL release and mRNA expression
same,effect on GCGb-stimulated SL mRNA expression,tilapia NIL cells [2]; [8],effective in blocking the stimulatory effect of GCGb on SL release and mRNA expression
Clc1ccc(C(c2ccc(Cl)cc2)n2cc[n+](CC(OCc3ccc(Cl)cc3Cl)c3ccc(Cl)cc3Cl)c2)cc1 (stereo not shown) [calmidazolium],effect on GCGb-stimulated SL release,tilapia NIL cells [1]; [7],abolished
same,effect on GCGb-stimulated SL mRNA expression,tilapia NIL cells [2]; [7],abolished
C1CCC[C@H]2CCCN3CC[C@@H](CCCCCC[C@@H]4CCCN5CC[C@@H](CC1)O[C@@H]45)O[C@@H]23 [xestospongin C],effect on GCGb-stimulated SL release,tilapia NIL cells [1]; [5],suppressed
same,effect on basal SL release,"tilapia NIL cells [1]; 5 µM test substance, 24 h",suppressed
same,effect on GCGb-stimulated SL mRNA expression,tilapia NIL cells [2]; [5],suppressed
same,effect on basal SL mRNA levels,"tilapia NIL cells [2]; 5 µM test substance, 24 h",suppressed
CN(C)CCCn1cc(C2=C(c3c[nH]c4ccccc34)C(=O)NC2=O)c2ccccc21 [GF109203X],effect on GCGb-stimulated SL release,"tilapia NIL cells [1]; 20 µM test substance with GCGb 10 nM, 24 h",neither compound was able to block GCGb stimulated SL release
COC(=O)C1=C(C)NC(C)=C(C(=O)OC)C1c1ccccc1[N+](=O)[O-] [nifedipine],effect on GCGb-stimulated SL release,tilapia NIL cells [1]; [9],effective in blocking the stimulatory effect of GCGb on SL release and mRNA expression
same,effect on GCGb-stimulated SL mRNA expression,tilapia NIL cells [2]; [9],effective in blocking the stimulatory effect of GCGb on SL release and mRNA expression
O=S(=O)(NCCNC/C=C/c1ccc(Br)cc1)c1cccc2cnccc12 [H89],effect on GCGb-stimulated SL release,tilapia NIL cells [1]; [6],blocked
same,effect on basal SL release,"tilapia NIL cells [1]; 10 µM test substance, 24 h",blocked the basal levels
same,effect on GCGb-stimulated SL mRNA expression,tilapia NIL cells [2]; [6],blocked
same,effect on basal SL gene expression,tilapia NIL cells [2]; 24 h,blocked the basal levels
